Laboratory results from article PMC10017709, “Structural basis of selective cannabinoid CB2 receptor activation” (Nature Communications, 2023).

Columns and labels:
[1] = system: cisplatin-induced nephropathy; experiment: Cisplatin-induced nephropathy in wild type mice; type: in vivo, C57BL/6J mice
Method: (§1) Ten to twelve-week-old male/female C57BL/6J mice were obtained from The Jackson Laboratory (Bar Harbor, ME, USA). CB2R knockout mice (CB2R^−/−) and their wild-type littermates (CB2R^+/+) were developed as described previously and had been backcrossed to a C57BL/6J background. All animals were kept in a temperature-controlled environment (20–22 °C) with a 12 h light–dark cycle and were always allowed free access to food and water. All animal experiments reported in this manuscript complied with the National Institutes of Health “Guide for the Care and Use of Laboratory Animals” (NIH publication 86–23 revised 1985) and were approved by the Institutional Animal Care and Use Committee of the National Institute on Alcohol Abuse and Alcoholism (Bethesda, MD).
(§2) The well-established model of cisplatin-induced nephropathy was used[63]. Mice (CB2R^−/− and CB2R^+/+) were sacrificed 72 h after a single injection of cisplatin (cis-diamine platinum (II) dichloride (Sigma#P4394) 25 mg/kg i.p.; freshly dissolved in physiological saline) by cervical dislocation under deep anesthesia with 5% isoflurane, for collection of blood and tissue samples. LEI-102 was given i.p. or by oral gavage (p.o.) at 0.3, 3.0, and 10 mg/kg every day, starting 1.5 h before the cisplatin exposure. The drug was dissolved in a vehicle of DMSO:Tween 80:saline, 1:1:18. After administration of LEI‐102, mice were killed by cervical dislocation under deep anesthesia with 5% isoflurane, for collection of blood and tissue samples at the time described in the figure. The tetrad assay in mice has previously been described in detail.
(§3) Markers of kidney dysfunction (BUN and CREA), histopathology (PAS staining), immunostaining or ELISA for 3-nitrotyrosine (3-NT; Cell Biolabs #STA-305) and 4-hydroxynonenal (4-HNE; Cell Biolabs#STA-838), and real-time PCR (Primers from Qiagen, SYBER Green Vita Scientific#MEIF01301, High-Capacity cDNA Reverse Transcription Kit, Thermo Fisher Scientific#4368813) for inflammatory cytokines were performed as previously described. Tubular damage scores were determined based on the percentage of tubules showing epithelial necrosis where 0= normal; 1, <10%; 2, 10–25%; 3, 26–75%; 4, >75%. Tubular necrosis was defined as the loss of the proximal tubular brush border, blebbing of apical membranes, tubular epithelial cell detachment from the basement membrane, or intraluminal aggregation of cells and proteins. The morphometric examination was performed in a blinded manner. Ten fields were scored from each mouse kidneys at 200× magnification, and average scores were determined for each mouse. For final quantification graph, average tubular damage scores of six mice/group were plotted.

[2] = system: cisplatin-induced nephropathy, CB2R knockout mice (CB2R−/−); experiment: Cisplatin-induced nephropathy in CB2R knockout mice; type: in vivo; settings: Cisplatin KO; mean, n = 6
Method: as §1, §2, §3

[3] = Cisplatin WT (Fig5F), mean, n = 6
[4] = cisplatin 25 mg/kg i.p. alone, 72 h, mean, n = 6 (Fig5A)
[5] = kidney, cisplatin alone, mean, n = 6, vehicle mean 1.0
[6] = kidney, cisplatin alone, mean, n = 6, vehicle mean 1.00

N.N.[Cl][Pt][Cl] [Cisplatin, cis-diamine platinum (II) dichloride]
BUN [1, 3]: 170 | CREA [1, 3]: 1.7 | Tubular damage score [1, 3]: 2.16 | BUN [1, 4]: 167.5 mg/dL | CREA [1, 4]: 1.8 mg/dL | serum creatinine and blood urea nitrogen levels ([1]; cisplatin 25 mg/kg i.p., 72 h, wild type mice vs vehicle): marked elevations | Tubular damage score ([1]; cisplatin alone, PAS staining, score 0-4, mean, n = 6 (Fig5B)): 2.4 | HNE (HNE adducts, ELISA) [1, 5]: 4.3 | NT (protein nitration, ELISA) [1, 5]: 5.7 | IL1b expression (real-time PCR) [1, 6]: 4.93 | TNFa expression (real-time PCR) [1, 6]: 3.36 | BUN [2]: 290 | CREA [2]: 3.7 | Tubular damage score [2]: 2.86
